The values below come from the supplement of paper PMC6965134.

Structures are written as SMILES.

A short description of one series: TIMS collisional cross section (CCS, N2) of the lipid ion; higher = larger ion cross section. To be noted: sample type: Liver; ionization mode: positive; one isomer drawn.
On to `CC/C=C\C/C=C\C/C=C\C/C=C\C/C=C\CCCCCC(=O)OC[C@@H](COC(=O)CCCCCCC/C=C\C/C=C\CCCCC)OC(=O)CCCCCCC/C=C\C/C=C\CCCCC` [TG 18:2_18:2_22:5] (ion (formula + adduct): [C61H100O6+NH4] 1+), for which the “TIMS collisional cross section” value was 327.9 Å².

Regarding `CC/C=C\C/C=C\C/C=C\C/C=C\C/C=C\C/C=C\CCC(=O)OC[C@@H](COC(=O)CCCCCCC/C=C\C/C=C\CCCCC)OC(=O)CCCCCCC/C=C\C/C=C\CCCCC` [TG 18:2_18:2_22:6] (ion (formula + adduct): [C61H98O6+NH4] 1+), the “TIMS collisional cross section” value is listed as 327.3 Å².

With `CC/C=C\C/C=C\C/C=C\C/C=C\CCCCC(=O)OC[C@@H](COC(=O)CCCCCCC/C=C\C/C=C\CCCCC)OC(=O)CCCC/C=C\C/C=C\C/C=C\CCCCC` [TG 18:2_18:3_18:4] (ion (formula + adduct): [C57H92O6+NH4] 1+), the “TIMS collisional cross section” value stood at 314.3 Å².

For `CC/C=C\C/C=C\C/C=C\CCCCCCCC(=O)O[C@@H](COC(=O)CCC/C=C\C/C=C\C/C=C\C/C=C\CCCCC)COC(=O)CCCCCCC/C=C\C/C=C\CCCCC` [TG 18:2_18:3_20:4] (ion (formula + adduct): [C59H96O6+NH4] 1+), the “TIMS collisional cross section” value came to 321.6 Å². For the compound `CC/C=C\C/C=C\C/C=C\C/C=C\C/C=C\CCCC(=O)OC[C@@H](COC(=O)CCCCCCC/C=C\C/C=C\CCCCC)OC(=O)CCCCCCC/C=C\C/C=C\C/C=C\CC` [TG 18:2_18:3_20:5] (ion (formula + adduct): [C59H94O6+NH4] 1+), the “TIMS collisional cross section” value came out at 319.5 Å². With `CC/C=C\C/C=C\C/C=C\C/C=C\C/C=C\C/C=C\CCC(=O)OC[C@@H](COC(=O)CCCCCCC/C=C\C/C=C\CCCCC)OC(=O)CCCCCCC/C=C\C/C=C\C/C=C\CC` [TG 18:2_18:3_22:6] (ion (formula + adduct): [C61H96O6+NH4] 1+), the “TIMS collisional cross section” value is 324.9 Å².

`CCCCC/C=C\C/C=C\CCCCCCCC(=O)OC[C@H](COC(=O)CCCCCCCCC/C=C\CCCCCCCC)OC(=O)CCCCCCC/C=C\CCCCCCCCC` [TG 18:2_19:1_20:1] (ion (formula + adduct): [C60H108O6+NH4] 1+): the “TIMS collisional cross section” value was 332.8 Å². For `CCCCC/C=C\C/C=C\CCCCCCCC(=O)OC[C@H](COC(=O)CCCCCCCCC/C=C\CCCCCCCCCC)OC(=O)CCCCCCC/C=C\CCCCCCCCC` [TG 18:2_19:1_22:1] (ion (formula + adduct): [C62H112O6+NH4] 1+), the “TIMS collisional cross section” value came to 338.2 Å². The same measure, in the same setting: the figure for `CCCCC/C=C\C/C=C\CCCCCCCCCC(=O)O[C@H](COC(=O)CCCCCCC/C=C\C/C=C\CCCCC)COC(=O)CCCCCCCCCCCCCCCCCCCCC` [TG 18:2_20:2_22:0] (ion (formula + adduct): [C63H114O6+NH4] 1+) is 341.4 Å²; for `CCCCC/C=C\C/C=C\C/C=C\C/C=C\CCCCCC(=O)OC[C@@H](COC(=O)CCCCCCC/C=C\C/C=C\CCCCC)OC(=O)CCCCCCCCC/C=C\C/C=C\CCCCC` [TG 18:2_20:2_22:4] (ion (formula + adduct): [C63H106O6+NH4] 1+) it is 335.7 Å²; for `CC/C=C\C/C=C\C/C=C\C/C=C\C/C=C\CCCCCC(=O)OC[C@@H](COC(=O)CCCCCCC/C=C\C/C=C\CCCCC)OC(=O)CCC/C=C\C/C=C\C/C=C\C/C=C\CCCCC` [TG 18:2_20:4_22:5] (ion (formula + adduct): [C63H100O6+NH4] 1+) it is 333 Å².

The same series, now with this note: sample type: plasma; ionization mode: positive; one isomer drawn.
Consider `CC/C=C\C/C=C\C/C=C\C/C=C\C/C=C\C/C=C\CCC(=O)OC[C@@H](COC(=O)CCCCCCC/C=C\C/C=C\CCCCC)OC(=O)CCCCCCC/C=C\C/C=C\CCCCC` [TG 18:2_18:2_22:6] (ion (formula + adduct): [C61H98O6+NH4] 1+), for which the “TIMS collisional cross section” value was 327 Å². Regarding `CC/C=C\C/C=C\C/C=C\CCCCCCCC(=O)O[C@@H](COC(=O)CCC/C=C\C/C=C\C/C=C\C/C=C\CCCCC)COC(=O)CCCCCCC/C=C\C/C=C\CCCCC` [TG 18:2_18:3_20:4] (ion (formula + adduct): [C59H96O6+NH4] 1+), the “TIMS collisional cross section” value is 321.6 Å². Still for that read-out and setting: for `CCCCC/C=C\C/C=C\CCCCCCCC(=O)OC[C@H](COC(=O)CCCCCCCCCCC/C=C\CCCCCCCC)OC(=O)CCCCCCCCC/C=C\CCCCCCCC` [TG 18:2_20:1_22:1] (ion (formula + adduct): [C63H114O6+NH4] 1+) the value was 340.8 Å².
